inhibition, IC50 and melting point data for 24 molecules are collected here from US6500842B1, “8-hydroxy-7-substituted quinolines as anti-viral agents” (Pharmacia & Upjohn Company, priority 1996, dated 2002).

“And” between values parts separate entries of the source, which are not always exact repeats. Equal values may be shown once. Read-outs that look alike come from different tables or passages of the source.

The target in data set [1] is T1, CMV polymerase (Human cytomegalovirus, UniProt P08546).
T1 construct: made in house; host or cells: recombinant baculovirus-infected SF-9 cells
As to the kind of experiment: modified version of the HCMV polymerase assay (100% DMSO dilution, DTT, different enzyme lot). Type of data set: biochemical. The conditions noted are these: Table 6. On the procedure:
The HCMV polymerase assay is performed using a scintillation proximity assay (SPA) as described in several references, such as N. D. Cook, et al., Pharmaceutical Manufacturing International, pages 49-53 (1992); K. Takeuchi, Laboratory Practice, September issue (1992); U.S. Pat. No. 4,568,649 (1986); which are incorporated by reference herein. Reactions are performed in 96-well plates. The assay is conducted in 100 μl volume with 5.4 mM HEPES (pH 7.5), 11.7 mM KCl, 4.5 mM MgCl2, 0.36 mg/ml BSA, and 90 nM ^3H-dTTP. Assays are run with and without CHAPS, (3-[(3-Cholamidopropyl)-dimethylammonio]-1-propane-sulfonate) at a final concentration of 2 mM. HCMV is diluted in enzyme dilution buffer containing 50% glycerol, 250 mM NaCl, 10 mM HEPES (pH 7.5), 100 pg/ml BSA, and 0.01% sodium azide. The HCMV polymerase, which is expressed in recombinant baculovirus-infected SF-9 cells and purified according to literature procedures, is added at 10% (or 10 μl) of the final reaction volume, i.e., 100 μl. Compounds are diluted in 50% DMSO and 10 μl are added to each well. Control wells contain an equivalent concentration of DMSO. Unless noted otherwise, reactions are initiated via the addition of 6 nM biotinylated poly(dA)-oligo(dT) template/primer to reaction mixtures containing the enzyme, substrate, and compounds of interest. Plates are incubated in a 25° C. of 37° C. H2O bath and terminated via the addition of 40 μl/reaction of 0.5 M EDTA (pH 8) per well. Reactions are terminated within the time-frame during which substrate incorporation is linear and varied depending upon the enzyme and conditions used, i.e., 30 min. for HCMV polymerase. Ten μl of streptavidin-SPA beads (20 mg/ml in PBS/10% glycerol) are added following termination of the reaction. Plates are incubated 10 min. at 37° C., then equilibrated to room temperature, and counted on a Packard Topcount. Linear regressions are performed and IC50's are calculated using computer software. Results of the testing of compounds of the present invention in this assay are shown in Tables 1, 2, 5, 9, 10, 11, 13 (except for the last compound which was tested under modified conditions) and 14 below.
A modified version of the above HCMV polymerase assay is performed as described above, but with the following changes: Compounds are diluted in 100% DMSO until final dilution into assay buffer. In the previous assay, compounds are diluted in 50% DMSO. 4.5 mM dithiotherotol (DTT) is added to the polymerase buffer.

The target of data set [2] is T2, HCMV polymerase (Human cytomegalovirus, UniProt P08546).
T2 construct: made in house; host or cells: recombinant baculovirus-infected SF-9 cells
The experiment in a line: HCMV polymerase assay (scintillation proximity assay). The class given is biochemical. As to conditions: pol type CMV. The method, boiled down:
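Baculovirus/SF-9-expressed purified enzyme in HEPES pH 7.5, KCl, 4.5 mM MgCl2, BSA, with 90 nM ³H-dTTP, ± 2 mM CHAPS; started with 6 nM biotinylated poly(dA)-oligo(dT), 30 min, stopped with EDTA. Incorporation read by streptavidin SPA beads; IC50 by linear regression.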

[3] abbreviates: Table 1, read-out: CMV pol Assay IC50.

T2 sequence (P08546 whole entry): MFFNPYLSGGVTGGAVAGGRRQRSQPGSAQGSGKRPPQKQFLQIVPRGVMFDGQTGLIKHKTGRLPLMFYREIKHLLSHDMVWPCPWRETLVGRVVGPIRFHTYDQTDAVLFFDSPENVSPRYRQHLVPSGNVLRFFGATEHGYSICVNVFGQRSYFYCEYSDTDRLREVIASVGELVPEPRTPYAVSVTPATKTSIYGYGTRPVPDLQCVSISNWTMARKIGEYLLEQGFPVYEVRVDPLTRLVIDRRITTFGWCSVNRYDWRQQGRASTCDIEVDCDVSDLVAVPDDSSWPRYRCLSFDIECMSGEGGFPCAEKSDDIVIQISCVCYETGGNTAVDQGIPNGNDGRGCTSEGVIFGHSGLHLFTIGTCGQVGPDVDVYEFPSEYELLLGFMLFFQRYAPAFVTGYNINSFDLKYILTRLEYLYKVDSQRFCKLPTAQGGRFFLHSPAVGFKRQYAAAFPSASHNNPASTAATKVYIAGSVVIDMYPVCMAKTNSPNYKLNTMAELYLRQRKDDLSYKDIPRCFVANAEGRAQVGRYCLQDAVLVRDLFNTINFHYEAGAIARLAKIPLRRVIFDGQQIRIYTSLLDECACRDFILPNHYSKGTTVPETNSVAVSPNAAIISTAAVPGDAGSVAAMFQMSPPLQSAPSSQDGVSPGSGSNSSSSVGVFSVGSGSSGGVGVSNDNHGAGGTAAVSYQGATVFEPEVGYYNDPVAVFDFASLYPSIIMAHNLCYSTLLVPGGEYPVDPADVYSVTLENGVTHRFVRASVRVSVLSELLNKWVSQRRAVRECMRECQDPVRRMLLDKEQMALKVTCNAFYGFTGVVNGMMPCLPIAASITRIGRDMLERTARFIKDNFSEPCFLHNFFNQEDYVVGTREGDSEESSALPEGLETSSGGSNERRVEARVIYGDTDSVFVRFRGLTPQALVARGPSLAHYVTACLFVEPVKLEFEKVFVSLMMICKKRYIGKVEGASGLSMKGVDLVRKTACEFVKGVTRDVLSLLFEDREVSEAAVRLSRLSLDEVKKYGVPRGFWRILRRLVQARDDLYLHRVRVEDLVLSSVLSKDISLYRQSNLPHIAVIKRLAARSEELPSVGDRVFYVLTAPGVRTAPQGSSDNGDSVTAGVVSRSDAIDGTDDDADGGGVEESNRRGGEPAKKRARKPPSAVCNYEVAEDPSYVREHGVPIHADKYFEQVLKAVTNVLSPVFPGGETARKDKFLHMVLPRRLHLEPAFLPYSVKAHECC
T1 sequence (P08546 whole entry): as above

In general, inhibition refers to the drop in the measured response relative to a control, in per cent. Read a low inhibition as a response near the control. The IC50 is the concentration that gives 50% inhibition. One may read the melting point as the temperature of the solid-liquid transition. `O=S(=O)(NCCSc1ccccc1)c1cc(Cl)c2ccc(/C=C/c3ccccc3)nc2c1O` [Example 63, (E)-5-Chloro-8-hydroxy-2-(2-phenylethenyl)-N-[2-(phenylthio)ethyl]-7-quinolinesulfonamide] displayed a melting point of 187 to 193 °C. The same molecule came in with an inhibition at 3.13 µM in data set [1] (Concentration 3.13 μM) of 29%. Also, the inhibition at 6.25 µM in data set [1] (Concentration 6.25 μM) was 34%. This molecule also came in with an inhibition at 12.5 µM in data set [1] (Concentration 12.5 μM) of 49%. This molecule showed an inhibition at 25 µM in data set [1] (Concentration 25 μM) of 71%. This molecule also showed an inhibition at 50 µM in data set [1] (Concentration 50 μM) of 74%. In addition, at 100 µM the inhibition in data set [1] (Concentration 100 μM) was 92%. For the same molecule, the IC50 in data set [1] (read-out: IC50) came to 11.4 µM.
In the case of `O=C(NCc1ccc([N+](=O)[O-])cc1)c1ccc2cccnc2c1O` [Example 12, 8-Hydroxy-N-[(4-nitrophenyl)methyl]-7-quinolinecarboxamide], the melting point was 210 to 212 °C. Further, the IC50 in data set [2] (setting [3]) stood at 15.9 µM.
Turning to `O=C(Nc1nc2ccc(Cl)cc2s1)c1ccc2cccnc2c1O` [Example 13, N-(6-Chloro-2-benzothiazolyl)-8-hydroxy-7-quinolinecarboxamide], the melting point was greater than 320 °C. For the same molecule, the IC50 in data set [2] (setting [3]) was greater than 100 µM.
On to `O=S(=O)(Nc1ccc(Cl)cc1)c1cc(Cl)c2cccnc2c1O` [Example 20, 5-Chloro-N-(4-chlorophenyl)-8-hydroxy-7-quinoline-sulfonamide], for which the melting point is 97 °C (dec.). Also, the IC50 in data set [2] (Table 2, read-out: IC50) was found to be 14.5 µM.
Consider `O=C(Nc1ccc(Cl)cc1)c1cc(Br)c2cccnc2c1O` [Example 4, 5-Bromo-N-(4-chlorophenyl)-8-hydroxy-7-quinolinecarboxamide], for which the melting point fell in the range of 213 to 215 °C. For the same molecule, in data set [2] (setting [3]), the IC50 is 3.9 µM and 3.1 µM and 5.1 µM.
The molecule `O=C(Nc1nnc(Cc2ccc(Cl)cc2)s1)c1ccc2cccnc2c1O` [Example 2, N-[5-[(4-Chlorophenyl)methyl]-1,3,4-thiadiazol-2-yl]-8-hydroxy-7-quinolinecarboxamide] returned a melting point of 276 to 278 °C. In addition, in data set [2] (setting [3]), the IC50 worked out at 4.3 µM.
As for `O=C(NCc1ccc(Cl)cc1)c1ccc2ccc(/C=C/c3ccccc3)nc2c1O` [Example 51, N-[(4-Chlorophenyl)methyl]-8-hydroxy-2-(2-phenylethenyl)-7-quinolinecarboxamide], the melting point was in the range of 192 to 194 °C. Further, the 50% inhibitory concentration (IC50) in data set [2] (Table 5, read-out: IC50) was < 3.1 µM and 0.17 µM.
For the molecule `O=C(Nc1ccc(Cl)cc1)c1cc(Cl)c2cccnc2c1O` [Example 15, 5-Chloro-N-(4-chlorophenyl)-8-hydroxy-7-quinolinecarboxamide], the melting point was in the range of 214 to 216 °C. The IC50 in data set [2] (setting [3]) came to 1.6 µM.
On to `COc1ccc(/C=C/c2ccc3ccc(C(=O)NCC(O)c4ccccc4)c(O)c3n2)cc1` (stereo not drawn) [Example 53, 8-Hydroxy-N-(2-hydroxy-2-phenylethyl)-2-[2-(4-methoxyphenyl)ethenyl]-7-quinolinecarboxamide], for which the melting point was 203 to 205 °C. The IC50 in data set [2] (Table 5, read-out: IC50) was < 3.1 µM and 0.3 µM.
For `O=C(NCc1ccc(Cl)cc1)c1cc(Br)c2cccnc2c1O` [Example 9, 5-Bromo-N-[(4-chlorophenyl)methyl]-8-hydroxy-7-quinolinecarboxamide], the melting point fell in the range of 148 to 151 °C. Moreover, the IC50 in data set [2] (setting [3]) was 2.5 µM.
On to `O=S(=O)(NCc1ccc(Cl)cc1)c1cc(Cl)c2cccnc2c1O` [Example 18, 5-Chloro-N-[(4-chlorophenyl)methyl]-8-hydroxy-7-quinoline-sulfonamide], for which the melting point was 189 to 190 °C (dec.). In addition, the IC50 in data set [2] (Table 2, read-out: IC50) is 27.9 µM.
Taken in the same sequence, the figures for `Cc1ccc2c(Cl)cc(S(=O)(=O)NCc3ccc(Cl)cc3)c(O)c2n1` [Example 17, 5-Chloro-N-[(4-chlorophenyl)methyl]-8-hydroxy-2-methyl-7-quinolinesulfonamide] were 158 to 161 °C (dec.) and 11.3 µM.
`O=C(Nc1ncc(-c2ccc(Br)s2)s1)c1ccc2cccnc2c1O` [Example 7, N-[5-(5-Bromo-2-thienyl)-2-thiazolyl]-8-hydroxy-7-quinolinecarboxamide]: the melting point is 279 to 281 °C (dec.). In addition, the IC50 in data set [2] (setting [3]) was determined as 6.9 µM.
In turn, `Cc1ccc2c(Cl)cc(S(=O)(=O)NCCSc3ccccc3)c(O)c2n1` [Example 26, 5-Chloro-8-hydroxy-2-methyl-N-[2-(phenylthio)ethyl]-7-quinolinesulfonamide] displayed a melting point of 136 to 139 °C. Also, the IC50 in data set [2] (Table 2, read-out: IC50) came out at 4.6 µM.
`CCCCCCCNC(=O)c1ccc2ccc(/C=C/c3ccc(OC)cc3)nc2c1O` [Example 48, N-Heptyl-8-hydroxy-2-[2-(4-methoxyphenyl)ethenyl]-7-quinolinecarboxamide] had a melting point of 115 to 116 °C. The IC50 in data set [2] (Table 5, read-out: IC50) is 0.5 µM and < 3.1 µM.
For the molecule `O=C(NCc1ccc(Cl)cc1)c1cc(F)c2cccnc2c1O` [Example 16, 5-Fluoro-N-[[4-chlorophenyl]methyl]-8-hydroxy-7-quinolinecarboxamide], the melting point was 184 to 185 °C. Also, the IC50 in data set [2] (setting [3]) was found to be 5.8 µM.
Taken in the same sequence, the figures for `O=C(NCc1ccc(Cl)cc1)c1cc(Cl)c2cccnc2c1O` [Example 11, 5-Chloro-N-[(4-chlorophenyl)methyl]-8-hydroxy-7-quinolinecarboxamide] were 163 to 166 °C and 1.3 µM.
`O=C(NCc1ccc(Cl)cc1)c1ccc2ccc(C(F)(F)F)nc2c1O` [Example 55, N-[(4-Chlorophenyl)methyl]-8-hydroxy-2-(trifluoromethyl)-7-quinolinecarboxamide] came in with a melting point of 92 to 94 °C. The IC50 in data set [2] (Table 5, read-out: IC50) was 31.5 µM and 19.7 µM.
Molecule `O=C(NCC(O)c1ccccc1)c1ccc2ccc(/C=C/c3ccccc3)nc2c1O` (stereo not drawn) [Example 50, 8-Hydroxy-N-(2-hydroxy-2-phenylethyl)-2-(2-phenylethenyl)-7-quinolinecarboxamide] registered a melting point of 83 to 86 °C. In data set [2] (Table 5, read-out: IC50), the IC50 is < 3.1 µM and 1.2 µM.
Molecule `CCCCCCCCNS(=O)(=O)c1cc(Cl)c2ccc(C)nc2c1O` [Example 29, 5-Chloro-8-hydroxy-2-methyl-N-octyl-7-quinolinesulfonamide] had a melting point of 85 to 100 °C. In addition, in data set [2] (Table 2, read-out: IC50), the IC50 is 18.3 µM and 40.1 µM.
Consider `CC(C)(C)c1ccc2c(Cl)cc(S(=O)(=O)NCc3ccc(Cl)cc3)c(O)c2n1` [Example 19, 5-Chloro-N-[(4-chlorophenyl)methyl]-2-(1,1-dimethylethyl)-8-hydroxy-7-quinolinesulfonamide], for which the melting point was 162 to 163 °C (dec.). Also, the IC50 in data set [2] (Table 2, read-out: IC50) worked out at 23.6 µM.
As to `O=C(NC1=NC(=O)C(c2ccc(Cl)cc2)S1)c1ccc2cccnc2c1O` (stereo not drawn) [Example 5, N-[5-(4-Chlorophenyl)-4,5-dihydro-4-oxo-2-thiazolyl]-8-hydroxy-7-quinolinecarboxamide], the melting point is 272 to 276 °C (dec.). Further, in data set [2] (setting [3]), the IC50 worked out at 6.8 µM.
Molecule `O=S(=O)(NCCc1ccc(Cl)cc1)c1cc(Cl)c2cccnc2c1O` [Example 23, 5-Chloro-N-[2-(4-chlorophenyl)ethyl]-8-hydroxy-7-quinoline-sulfonamide] came in with a melting point of 192 to 194 °C. In addition, the IC50 in data set [2] (Table 2, read-out: IC50) is 2 µM and 3.1 µM.
`O=C(NCCSc1ccccc1)c1ccc2ccc(/C=C/c3ccccc3)nc2c1O` [Example 52, 8-Hydroxy-2-(2-phenylethenyl)-N-[2-(phenylthio)ethyl]-7-quinolinecarboxamide] returned a melting point of 131 to 132 °C. Further, in data set [2] (Table 5, read-out: IC50), the IC50 is < 3.1 µM and 0.17 µM.
